Assay results reported in publication PMC10287695, “Non-covalent inhibitors of thioredoxin glutathione reductase with schistosomicidal activity in vivo” (Nature Communications, 2023).
Values joined by “and” are separate entries in the source; they are usually repeats but may differ in a detail not shown here. Equal values may be shown once. Read-outs that look alike come from different tables or passages of the source.

Tests used:
S. japonicum adult worms = assay: Schistosomicidal activity ex vivo, S. japonicum adult worms; assay type: cell-based; conditions: for LD50 ex vivo S. japonicum adult: 48 h exposure
Experimental: (§1) Three-week old, female Swiss-Webster mice obtained from the Charles River were housed in the Comparative Research Center of Rush University Medical Center. Mice were infected by percutaneous tail exposure to about 200 S. mansoni or 50 S. japonicum cercaria for adult worms and about 1000 cercaria for juvenile S. mansoni worms through natural transdermal penetration of the cercariae for 1 h[81].
(§2) DMSO formulated compounds were diluted with phenol red free M199 medium or RPMI medium for NTS or juvenile and adult worms, respectively, at <1% DMSO final concentrations. NTS, juvenile and adult worms from overnight cultures were tested against compounds in triplicate. Controls were treated with DMSO alone or 5 µM AF as a positive control in appropriate medium. […] Schistosome viabilities in the presence of the compounds were assessed using this formula: % Viability = Averages of Test / Averages of DMSO Control x 100.

[1] = test system: S. mansoni juvenile worms (21 days); assay: Schistosomicidal activity ex vivo, juvenile worms (21 days); assay type: cell-based; conditions: for viability at 5 µM / viability at 15 µM / viability at 30 µM: Schistosoma mansoni, 23 day S. mansoni worms, 48 HR; for viability at 5 µM: Conc. 5 µM; for viability at 15 µM: Conc. 15 µM; for viability at 30 µM: Conc. 30 µM; for LD50 ex vivo S. mansoni 21 days: juvenile worms, 48 h exposure
Experimental: as §1, §2

BmTrxR = BmTrxR (Brugia malayi, UniProt A0A1I9G0T9); assay: B. malayi TrxR enzyme inhibition; assay type: biochemical
Sequence of BmTrxR (A0A1I9G0T9 entry or part of it, added parts left off): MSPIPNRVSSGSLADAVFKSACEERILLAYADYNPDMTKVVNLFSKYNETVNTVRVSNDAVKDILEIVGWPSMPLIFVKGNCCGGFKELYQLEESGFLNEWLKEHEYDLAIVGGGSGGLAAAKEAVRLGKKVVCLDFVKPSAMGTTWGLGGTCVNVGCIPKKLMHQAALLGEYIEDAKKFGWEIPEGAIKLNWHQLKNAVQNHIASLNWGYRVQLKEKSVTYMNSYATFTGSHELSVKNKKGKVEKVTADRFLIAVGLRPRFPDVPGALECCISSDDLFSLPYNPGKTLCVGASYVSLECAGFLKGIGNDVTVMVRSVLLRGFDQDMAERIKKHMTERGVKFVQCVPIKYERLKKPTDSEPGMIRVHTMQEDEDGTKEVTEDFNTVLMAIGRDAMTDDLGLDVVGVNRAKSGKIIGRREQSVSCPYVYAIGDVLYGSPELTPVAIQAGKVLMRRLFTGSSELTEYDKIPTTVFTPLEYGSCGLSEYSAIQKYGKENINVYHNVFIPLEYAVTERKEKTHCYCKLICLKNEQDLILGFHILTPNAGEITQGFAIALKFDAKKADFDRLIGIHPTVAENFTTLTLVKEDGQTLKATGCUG
Experimental: Recombinant TGR, human TrxR1, B. malayi (Bm)TrxR and human GR proteins were expressed and purified as described[20],[69],[79]. The codon optimized sequence for P. falciparum (PfTrxR, https://www.ncbi.nlm.nih.gov/protein/CAA60574.1/) with an N-terminal 6-His tag was synthesized and inserted into pET15b (GenScript) and expressed in BL21 (DE3) cells and purified as described for human GR[20]. […] The reaction was started with addition of an equal volume of DTNB (6 mM) and NADPH (100 µM) and the increase in A412 during the first 3 min was recorded. […] Activity was initiated with the addition of 1 mM GSSG and 100 μM NADPH and initial rates of NADPH oxidation were monitored at 340 nm. The reactions were done in triplicate. The IC50 was calculated in GraphPad Prism.

[2] = Cytotoxicity in mammalian cells (Cell Titer Glo); assay type: cell-based; conditions: African green monkey, Vero cells
Experimental: Following overnight incubation, formulated DMSO-compound stock solutions were diluted with DMEM at <1% DMSO final concentrations. […] Vero cells treated similarly with different concentrations of PZQ, MZM and AF (Cayman Chemicals) were used as positive controls.

TGR [3] = molecular target: T1, TGR (Schistosoma mansoni, UniProt Q962Y6); assay: Reversibility by jump dilution; assay type: biochemical
T1 construct: made in house
T1 sequence (Q962Y6 1-598): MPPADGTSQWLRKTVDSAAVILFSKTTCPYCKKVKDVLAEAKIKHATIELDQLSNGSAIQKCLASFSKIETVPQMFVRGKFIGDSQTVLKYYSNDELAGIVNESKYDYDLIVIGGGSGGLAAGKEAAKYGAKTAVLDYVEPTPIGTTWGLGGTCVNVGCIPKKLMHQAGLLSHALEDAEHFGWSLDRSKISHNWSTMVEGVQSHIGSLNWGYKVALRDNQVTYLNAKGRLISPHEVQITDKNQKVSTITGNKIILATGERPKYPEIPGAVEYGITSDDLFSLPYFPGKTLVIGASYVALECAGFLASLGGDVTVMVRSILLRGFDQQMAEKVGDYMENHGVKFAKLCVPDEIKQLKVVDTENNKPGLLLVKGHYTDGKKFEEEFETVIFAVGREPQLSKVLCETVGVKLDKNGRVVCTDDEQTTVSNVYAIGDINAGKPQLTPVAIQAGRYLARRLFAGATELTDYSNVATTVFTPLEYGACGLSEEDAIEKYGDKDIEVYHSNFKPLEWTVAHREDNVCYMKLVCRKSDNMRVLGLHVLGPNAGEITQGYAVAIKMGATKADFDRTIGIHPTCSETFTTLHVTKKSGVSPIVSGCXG
Experimental: A reaction of 370 nM TGR, 100 µM NADPH, and 250 µM inhibitor was incubated for 15 min at room temperature. A 100x dilution of the reaction was made and the activity was determined immediately and after 60 min.

TGR [4] = molecular target: T1, TGR; assay: Thermal shift assay (TSA); assay type: binding; design: key to Avg. Tm / Tm, replicate 1-3: Tm in °C, from a 25–95 °C melt curve
Experimental: Samples were prepared by using a final concentration of 0.25 mg/ml TGR diluted in TGR reaction buffer to the desired volume. To evaluate reduced TGR, 500 µM NADPH was added. […] After the preincubation period, 20 µL samples were pipetted into a BioRad un-skirted PCR 96 well plate and sealed with MicroAmp^TM Optical Adhesive film. The plate was then centrifuged for 5 min at 1000 × g. TSA was carried out using a BioRad CFX Connect qPCR instrument with a melt curve setting of 25 − 95 °C, in increments of 0.5 °C/10 seconds. The SYBR green channel was used to detect fluorescence as the wavelength of flavin fluorescence overlaps with that of SYBR green. BioRad CFX Maestro 5.2 was used to analyze TSA data.

[5] = D60: diluted 1:100, activity determined after 60 min, list for plotting
[6] = before dilution (-15), list for plotting

**Q.** What does the source list for CCc1ccccc1-c1nc(CN[C@@H]2C[C@@H]3C[C@H]([C@H]2C)C3(C)C)c(C)o1 [Compound 2]?
**A.** LD50 ex vivo S. japonicum adult (S. japonicum adult worms): 11.1 ± 1.35 µM; viability at 5 µM (S. japonicum adult worms; Schistosoma japonicum, S. japonicum adult worms, 48 hr, Conc. 5 µM): 52.5%; viability at 15 µM (S. japonicum adult worms; Schistosoma japonicum, S. japonicum adult worms, 48 hr, Conc. 15 µM): 30.6%; viability at 30 µM (S. japonicum adult worms; Schistosoma japonicum, S. japonicum adult worms, 48 hr, Conc. 30 µM): 3.64%; viability at 5 µM [1]: 57%; viability at 15 µM [1]: 9.68%; viability at 30 µM [1]: 0.112%; LD50 ex vivo S. mansoni 21 days [1]: 7.2 ± 0.30 µM; inhibition at 10 µM (BmTrxR; BmTrxR, 10 µM compound, mean of 3 replicates, read-out: % inhibition): 0.63%; inhibition at 25 µM (BmTrxR; BmTrxR, 25 µM compound, mean of 3 replicates, read-out: % inhibition): 5.59%; inhibition at 50 µM (BmTrxR; BmTrxR, 50 µM compound, mean of 3 replicates, read-out: % inhibition): 12.9%; inhibition at 50 µM (BmTrxR; read-out: BmTrxR % inhibition at 50 µM, 50 µM, the highest concentration tested): 13%; viability at 24 h, 5 µM ([2]; Conc. 5 µM): 99.8%; viability at 24 h, 10 µM ([2]; Conc. 10 µM): 98.9%; viability at 24 h, 25 µM ([2]; Conc. 25 µM): 95.6%; viability at 24 h, 35 µM ([2]; Conc. 35 µM): 75.4%; viability at 24 h, 50 µM ([2]; Conc. 50 µM): 53.1%

**Q.** With Cc1oc(-c2ccccc2)nc1CN[C@@H]1C[C@@H]2C[C@H]([C@H]1C)C2(C)C [Compound 3] as the compound, how does the “LD50 ex vivo S. japonicum adult” value (S. japonicum adult worms) read?
**A.** 13.9 ± 1.45 µM

**Q.** And the viability at 5 µM [1]?
**A.** 66%

**Q.** And the viability at 15 µM [1]?
**A.** 43.1%

**Q.** What about the viability at 30 µM [1] of the same compound?
**A.** 32.1%

**Q.** What about the “LD50 ex vivo S. mansoni 21 days” value [1] of the same compound?
**A.** 10.9 ± 0.39 µM

**Q.** And the “% Activity (ID list), D0” value (TGR [3]; D0: diluted 1:100, activity determined immediately, list for plotting)?
**A.** 107.0% and 101.9% and 120.0%

**Q.** And the “% Activity (ID list), D60” value (TGR [3]; [5])?
**A.** 112.2%

**Q.** What about the “% Inhibition (ID list), D60” value (TGR [3]; [5]) of the same compound?
**A.** -12.2% and -2.4% and -4.0%

**Q.** What about the “Inhibitor (rate), 0 min” value (TGR [3]; [0, D0]: 15 min preincubation inhibitor + TGR + NADPH, diluted 1:100, then activity determined immediately, raw rate) of the same compound?
**A.** 0.04937 and 0.04787 and 0.05217

**Q.** What about the “% Activity, 0 min” value (TGR [3]; [0, D0]: 15 min preincubation inhibitor + TGR + NADPH, diluted 1:100, then activity determined immediately, relative to DMSO) of the same compound?
**A.** 106.977% and 101.851% and 120.346%

**Q.** What about the “Inhibitor (rate), 60 min” value (TGR [3]; [60, D60]: 15 min preincubation inhibitor + TGR + NADPH, diluted 1:100, then activity determined after 60 min, raw rate) of the same compound?
**A.** 0.04847 and 0.05055 and 0.05088

**Q.** What about the “% Activity, 60 min” value (TGR [3]; [60, D60]: 15 min preincubation inhibitor + TGR + NADPH, diluted 1:100, then activity determined after 60 min, relative to DMSO) of the same compound?
**A.** 112.121% and 113.417% and 109.021%

**Q.** And the “Inhibitor (rate), -15” value (TGR [3]; [-15]: 15 min preincubation inhibitor + TGR + NADPH, then activity determined, raw rate, replicates)?
**A.** 0.01322 and 0.01449

**Q.** What about the “% Activity, -15” value (TGR [3]; [-15]: 15 min preincubation inhibitor + TGR + NADPH, then activity determined, relative to DMSO, replicates) of the same compound?
**A.** 38.3633% and 40.1163%

**Q.** And the “% Activity (ID list)” value (TGR [3]; [6])?
**A.** 38.4% and 40.1%

**Q.** What about the “% Inhibition (ID list)” value (TGR [3]; [6]) of the same compound?
**A.** 61.6367% and 59.8837% and 55%

**Q.** What about the “Avg. Tm” value (TGR [4]; TGR + 100 µM compound) of the same compound?
**A.** 73.5

**Q.** And the “Avg. Tm, + 500 µM NADPH” value (TGR [4]; TGR + 100 µM compound + 500 µM NADPH)?
**A.** 73.67

**Q.** And the “Tm, replicate 1-3, + 500 µM NADPH” value (TGR [4]; TGR + 100 µM compound + 500 µM NADPH, single replicates)?
**A.** 74 and 73.5 (2×)

**Q.** What about the “Tm, replicate 1-3” value (TGR [4]; TGR + 100 µM compound, single replicates, in °C (unit assumed)) of the same compound?
**A.** 73.5

**Q.** What about the “effect on Tm of oxidized TGR” value (TGR [4]; without NADPH) of the same compound?
**A.** Neither fast 6-9 nor slow TGR inhibitors 1, 3, 5 affected the Tm

**Q.** And the inhibition at 10 µM (BmTrxR)?
**A.** -15.1%

**Q.** And the inhibition at 25 µM (BmTrxR)?
**A.** -10.6%

**Q.** What about the inhibition at 50 µM (BmTrxR) of the same compound?
**A.** -20.9%

**Q.** What about the “BmTrxR % inhibition at 50 µM” value (BmTrxR; 50 µM, the highest concentration tested) of the same compound?
**A.** n.i.
